The assay deals with L1210. Put plainly: Tumor cell selectivity determined as maximal percent increase in life span (ILSmax) at LD10 dosage level in L1210 cells. It is filed as functional, Mus musculus.

As to `Nc1ccc(Nc2c3ccccc3nc3cc([N+](=O)[O-])ccc23)cc1`, the ILSmax was 30%.
With `NCCCCCc1ccc(NC(=O)Nc2ccc(N=c3c4ccccc4[nH]c4ccccc34)cc2)cc1` the figure was 170%; with `CCCCCS(=O)(=O)Nc1ccc(Nc2c3ccccc3nc3ncccc23)c(OC)c1`, 76%.
In the case of `CCC(=O)N(c1ccc(Nc2c3ccc([N+](=O)[O-])cc3nc3c(C)cccc23)c(OC)c1)S(C)(=O)=O`, the ILSmax is recorded as 72%.
Take `NCCc1ccc(Nc2c3ccccc3nc3ccccc23)cc1`: the ILSmax was determined as 25%.
With `COc1cc(NS(C)(=O)=O)ccc1Nc1c2ccccc2nc2cccc([N+](=O)[O-])c12` the figure was 50%; with `N#CC(C#N)=Cc1ccc(Nc2c3ccccc3nc3ccccc23)cc1`, 65%.
For `CCOC(=O)N1CCN(C(=O)Nc2ccc(Nc3c4ccccc4nc4ccccc34)cc2)CC1` the value was 50%.
With `CCCCCCNc1ccc(Nc2c3ccccc3nc3ccccc23)cc1` the figure was 25%; with `O=C(O)CCCCCc1ccc(Nc2c3ccccc3nc3ccccc23)cc1`, 200%.
As to `CCCCCNS(=O)(=O)c1ccc(N=c2c3ccccc3[nH]c3cc(N)ccc23)cc1`, the ILSmax is given as 50%.
With `c1ccc2c(Nc3ccc(N4CCNCC4)cc3)c3ccccc3nc2c1` the figure was 25%; with `NC(=O)CCCCc1ccc(Nc2c3ccccc3nc3ccccc23)cc1`, 82%; with `COc1ccc(Nc2c3ccccc3nc3ccccc23)c(NS(C)(=O)=O)c1`, 50%.
With `COc1cc(NS(C)(=O)=O)ccc1Nc1c2ccccc2nc2cc(C)ccc12` the figure was 168%; with `NCCS(=O)(=O)Nc1ccc(Nc2c3ccccc3nc3ccccc23)cc1`, 25%; with `COc1cc(NS(C)(=O)=O)ccc1Nc1c2ccccc2nc2ccccc12` [AMSACRINE], 111%.

The values above are taken from ChEMBL document CHEMBL1122107, “Structure-antitumor activity relationships of 9-anilinoacridines using pattern recognition” (1982).
